Reference: PMC8070256, “Feasibility of Developing Radiotracers for MDM2: Synthesis and Preliminary Evaluation of an ^18F-Labeled Analogue of the MDM2 Inhibitor SP-141” (Pharmaceuticals, 2021)
“And” between values parts separate entries of the source, which are not always exact repeats. Equal entries are not always repeated.

Tests used:
HepG2 cells = test: Cell uptake of [^18F]1 in HepG2 cells after 21 h pretreatment; format: cell-based, human; settings: vehicle-treated HepG2 cells, 1 h uptake
Experimental: (§1) The ability of [^18F]1 to bind to MDM2 expressing human tumor cells was assessed using two wild-type p53 cell lines, MCF-7 breast adenocarcinoma, and HepG2 hepatocellular carcinoma. These cell lines have significant MDM2 expression levels and have been utilized previously for assessing potential MDM2 inhibitors, including SP-141 [12, 24, 25]. […] Thus, to examine the uptake and specificity of [^18F]1 by MDM2 expressing tumor cell lines, MCF-7 and HepG2 cells were treated with 0, 1, 5, or 10 µM SP-141 for 21 h, and then assessed for [^18F]1 uptake for 1 h.
Cell uptake studies of [^18F]1 were conducted using MCF-7 and HepG2 cell lines. […] Next, the incubation medium was removed, cells were rinsed with cold PBS (3 × 0.5 mL) and lysed using Cell Culture Lysis Reagent (0.25 mL, Promega Corporation, Madison, WI, USA) followed by a rinse with PBS (0.125 mL/well). For each well, the supernatant, PBS washes, and the cell lysate were measured for radioactivity in an automated gamma counter (Wallac Wizard™, Perkin Elmer, Waltham, MA, USA). Subsequently, cell lysates were analyzed for protein concentration using the Bradford assay (Bio-Rad, Hercules, CA, USA). Cell uptake for each well was normalized to its protein content and expressed as % uptake/mg protein. Results are presented as mean ± SD for three wells.

MCF-7 cells [1] = test: Saturation binding assay with [^18F]1 on MCF-7 cells; parameters: species or system human; settings: 30 min incubation, nonspecific binding from cells pretreated with 1 µM SP-141 for 25 h, read-out: Kd (equilibrium dissociation constant)
Experimental: Next, saturation binding assays were conducted to evaluate the binding affinity of [^18F]1 on MCF-7 cells. In these experiments, MCF-7 cells seeded in 24-well plates were incubated for 30 min with eight increasing concentrations of [^18F]1 in serial two-fold dilutions (185.5–1.4 nM). Nonspecific binding was assessed in parallel using cells that were pretreated with 1 µM SP-141 for about 25 h to induce MDM2 degradation, thereby depleting MDM2 from the cells. Uptake of [^18F]1 in SP-141-pretreated cells was considered nonspecific and was subtracted from the total binding data for untreated cells at each radiotracer concentration to calculate the equilibrium dissociation constant (Kd) by nonlinear regression analysis in Graphpad Prism®.
For the saturation binding assay with [^18F]1, MCF-7 cells plated in 24-well plates (200,000 cells/well) were treated for 25 h with vehicle (DMSO, <5%; plate #1, for total binding) or SP-141 (1 µM; plate #2, to determine nonspecific binding). […] At each concentration of [^18F]1, nonspecific binding was determined in parallel (plate #2) in cells treated with 1 µM SP-141 to induce MDM2 degradation. Specific binding data were calculated by subtracting nonspecific binding from total binding and fit using the equation “Specific binding with Hill slope” in GraphPad Prism® (GraphPad, v5.01). […]

[2] = Lipophilicity, shake-flask partitioning between PBS (pH 7.4) and n-octanol; format: physicochemical; settings: PBS (pH 7.4) / n-octanol, read-out: log D7.4
Experimental: The lipophilicity of [^18F]1 was determined by its partitioning between PBS (pH 7.4) and n-octanol by the shake-flask method as previously described.
An aliquot of [^18F]1 (0.37 MBq) was added to a mixture of PBS (pH 7.4) and n-octanol (2 mL each, n = 3) in polypropylene tubes. The mixture was vortexed for one minute, and the organic phase was separated by centrifugation (3000 rpm, 5 min). Next, aliquots of octanol (50 µL) and PBS (500 µL) were collected from each tube into preweighed Eppendorf® tubes and measured for radioactivity in an automated gamma counter (Wallac Wizard™, Perkin Elmer, Waltham, MA, USA). Samples were weighed, and the weights were converted to volume according to solvent density. The partition coefficient value was calculated as the ratio of radioactivity (counts per minute (CPM)/mL) in octanol to that in the aqueous phase.

MCF-7 cells [3] = test: Cell uptake of [^18F]1 in MCF-7 cells after 21 h pretreatment; format: cell-based, human; settings: 1 h uptake
Experimental: as §1
Cell uptake studies of [^18F]1 were conducted using MCF-7 and HepG2 cell lines. Briefly, cells plated in 24-well plates (200,000/well) were treated with varying concentrations of SP-141 (1, 5, or 10 µM) or vehicle for 21 h and incubated with a fresh medium containing [^18F]1 (~18.5 kBq in 0.5 mL medium) for 1 h. Next, the incubation medium was removed, cells were rinsed with cold PBS (3 × 0.5 mL) and lysed using Cell Culture Lysis Reagent (0.25 mL, Promega Corporation, Madison, WI, USA) followed by a rinse with PBS (0.125 mL/well). For each well, the supernatant, PBS washes, and the cell lysate were measured for radioactivity in an automated gamma counter (Wallac Wizard™, Perkin Elmer, Waltham, MA, USA). Subsequently, cell lysates were analyzed for protein concentration using the Bradford assay (Bio-Rad, Hercules, CA, USA). Cell uptake for each well was normalized to its protein content and expressed as % uptake/mg protein. Results are presented as mean ± SD for three wells.

[4] = In vitro stability in human serum (HPLC); format: in vitro ADME; settings: 37 °C, 1, 2 and 3 h
Experimental: Next, the in vitro stability of [^18F]1 was examined by incubating the labeled compound with human serum for up to 3 h at 37 °C, followed by HPLC analysis of the samples using gradient elution conditions.
The stability of [^18F]1 in human serum (Innovative Research Inc., Novi, MI, USA) was analyzed by HPLC using a Chromolith® Performance RP-18e column (4.6 × 100 mm, Millipore Sigma, Burlington, MA, USA), eluted with gradient mixtures of sodium acetate buffer (0.05 M, pH 5.5) and ethanol. The percentage of ethanol was kept at 5% for the first 5 min at a flow rate of 0.5 mL and then increased to 90% over 15 min at a flow rate of 1 mL/min. The stability studies were initiated by incubating human serum (0.5 mL) with [^18F]1 (6.66 MBq in 20 µL ethanol) at 37 °C. Samples (100 µL) were analyzed by HPLC after 0, 1, 2, and 3 h incubation. At each time point, the serum sample was spiked with the nonradioactive 1 (10 µg) before HPLC analysis for identity confirmation of the parent peak ([^18F]1).

logD [2]: 2.35 ± 0.19
Percentage of intact [^18F]1 [4]: ~ 100%
Structure (SMILES): [18F]CCOc1ccc2[nH]c3c(-c4cccc5ccccc45)nccc3c2c1 [[^18F]1]
[^18F]1 uptake, baseline (HepG2 cells): 67.5 %/mg protein and ~ 68 %/mg protein
Kd (MCF-7 cells [1]): 78.1 nM
[^18F]1 uptake (MCF-7 cells [3]; MCF-7 cells treated with SP-141 (1, 5 or 10 µM) for 21 h): ≤ 18.5 ± 0.0 %/mg protein
[^18F]1 uptake (MCF-7 cells [3]; vehicle-treated control MCF-7 cells): 71.4 %/mg protein and 71.4 ± 0.0 %/mg protein
